Measured values from the supplement of paper PMC11061612.

What was measured:
[1] = tested on: HGC-27 (Gastric Carcinoma); experiment: Bliss excess, mean over the matrix (fraction); higher = more synergy
Outline: (§1)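 After 24 hours at 37°C and 5% CO2 in 1536-well plates, cells in DMEM/F12 or RPMI plus 10% FBS received two-drug dose matrices for 72 hours. Viability came from CellTiter-Glo 2.0 luminescence and was scaled as inhibition, anchored at 0 by vehicle wells and at 1 by blank wells. Combination Emax is taken as the second-highest inhibition in the matrix, and Bliss excess as the observed combination effect less EA + EB − EA·EB, with EA and EB the single-agent effects.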

[2] = tested on: JVM-3 (B-Cell Non-Hodgkin's Lymphoma); experiment: as above
Outline: as §1

[3] = tested on: KMOE-2 (Acute Myeloid Leukemia); experiment: as above
Outline: as §1

[4] = tested on: NUGC-3 (Gastric Carcinoma); experiment: as above
Outline: as §1

[5] = tested on: OVCAR-4 (Ovarian Carcinoma); experiment: as above
Outline: as §1

[6] = tested on: SU8686 (Pancreatic Carcinoma); experiment: as above
Outline: as §1

[7] = tested on: TE-1 (Esophageal Squamous Cell Carcinoma); experiment: as above
Outline: as §1

[8] = tested on: C-4-I (Cervical Carcinoma); experiment: combination Emax (second highest fraction inhibited in the dose matrix, 72 h); higher = more inhibition; extreme values may be limits of the assay
Outline: as §1

[9] = tested on: HOP-62 (Lung Adenocarcinoma); experiment: as above
Outline: as §1

[10] = tested on: HSC-4 (Oral Cavity Carcinoma); experiment: as above
Outline: as §1

[11] = tested on: JVM-3 (B-Cell Non-Hodgkin's Lymphoma); experiment: as above
Outline: as §1

[12] = tested on: NCI-H1915 (Non-Small Cell Lung Carcinoma); experiment: as above
Outline: as §1

[13] = tested on: NEC8 (Other Solid Carcinomas); experiment: as above
Outline: as §1

[14] = tested on: NUGC-3 (Gastric Carcinoma); experiment: as above
Outline: as §1

[15] = tested on: OSC-20 (Oral Cavity Carcinoma); experiment: as above
Outline: as §1

[16] = tested on: OVCAR-4 (Ovarian Carcinoma); experiment: as above
Outline: as §1

[17] = tested on: PWR-1E (Non-Cancerous); experiment: as above
Outline: as §1

[18] = tested on: SCC-15 (Oral Cavity Carcinoma); experiment: as above
Outline: as §1

[19] = tested on: TE-1 (Esophageal Squamous Cell Carcinoma); experiment: as above
Outline: as §1

[20] = tested on: VA-ES-BJ (Other Solid Carcinomas); experiment: as above
Outline: as §1
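Wherever Bliss excess, mean over the matrix is given: after 72 h of two-drug dosing.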

Structure (SMILES)	Bliss excess [1]	Bliss excess [2]	Bliss excess [3]	Bliss excess [4]	Bliss excess [5]	Bliss excess [6]	Bliss excess [7]	combination Emax [8]	combination Emax [9]	combination Emax [10]	combination Emax [11]	combination Emax [12]	combination Emax [13]	combination Emax [14]	combination Emax [15]	combination Emax [16]	combination Emax [17]	combination Emax [18]	combination Emax [19]	combination Emax [20]
CN(CCO)CC[C@H](CSc1ccccc1)Nc1ccc(S(=O)(=O)NC(=O)c2ccc(N3CCC([C@@H](O)c4ccccc4-c4ccc(Cl)cc4)CC3)cc2)cc1S(=O)(=O)C(F)(F)F [AZD4320] + C1CN(CCC1(C(=O)N[C@@H](CCO)C2=CC=C(C=C2)Cl)N)C3=NC=NC4=C3C=CN4 [Capivasertib] (first compound max 1 µM, 7x7, partner max 3 µM)	-0.0252	-0.0162	-0.0435	-0.039	-0.0417	-0.0385	-0.0292	0.145	0.115	0.32	0.889	0.116	0.0891	0.127	0.0937	0.0826	0.252	0.14	0.369	0.224
CN(CCO)CC[C@H](CSc1ccccc1)Nc1ccc(S(=O)(=O)NC(=O)c2ccc(N3CCC([C@@H](O)c4ccccc4-c4ccc(Cl)cc4)CC3)cc2)cc1S(=O)(=O)C(F)(F)F [AZD4320] + C=CCn1c(=O)c2cnc(Nc3ccc(N4CCN(C)CC4)cc3)nc2n1-c1cccc(C(C)(C)O)n1 [AZD1775] (first compound max 1 µM, partner max 1 µM)	-0.018	-0.101	0.0656	-0.0346	-0.0068	-0.0598	-0.0034	0.946	0.458	0.585	1	0.853	0.414	0.764	0.119	0.662	0.338	0.551	0.824	0.458
Cc1nc(Nc2ncc(C(=O)Nc3c(C)cccc3Cl)s2)cc(N2CCN(CCO)CC2)n1 [Dasatinib] + CC(=O)Nc1cccc(-n2c(=O)n(C3CC3)c(=O)c3c(Nc4ccc(I)cc4F)n(C)c(=O)c(C)c32)c1 [Trametinib] (first compound max 2 µM, 7x7, partner max 1 µM)	-0.0355		-0.0125	0.0374	0.0286	-0.0328	-0.0067	0.731	0.749	0.423		1	0	0.721	0.434	0.62	0.897	0.739	0.791	0.441
COc1cc2ncnc(Nc3ccc(F)c(Cl)c3)c2cc1OCCCN1CCOCC1 [Gefitinib] + CC(C)n1c(=O)n(C)c2cnc3cc(F)c(-c4ccc(OCCCN5CCCCC5)nc4)cc3c21 [AZD1390] (first compound max 10 µM, 7x7, partner max 0.3 µM)	-0.0261		-0.0589	-0.0515	-0.0561	-0.0378	-0.0471	0.387	0.0723	0.0642		0.213	0	0.486	0.064	0.0866	0.205	0.39	0.368	0.0868
C[C@@H](c1ccc2nccn2c1)n1nnc2ncc(-c3cnn(C)c3)nc21 [Savolitinib] + CC1(C)CCC(CN2CCN(c3ccc(C(=O)NS(=O)(=O)c4ccc(NCC5CCOCC5)c([N+](=O)[O-])c4)c(Oc4cnc5[nH]ccc5c4)c3)CC2)=C(c2ccc(Cl)cc2)C1 [Venetoclax] (first compound max 1 µM, 7x7, partner max 1 µM)	-0.0158		-0.0414	-0.0666	-0.0791	-0.0617	-0.0546	0.0949	0.0599	0		0.145	0.117	0.181	0.149	0.0979	0.0879	0.191	0.0986	0.152
C[C@@H](c1ccc2nccn2c1)n1nnc2ncc(-c3cnn(C)c3)nc21 [Savolitinib] + Cc1c2c(nn1C)CSCc1cc(n(C)n1)CSc1cc(c3ccccc3c1)OCCCc1c(C(=O)O)n(C)c3c-2c(Cl)ccc13 [AZD5991] (first compound max 1 µM, 7x7, partner max 1 µM)	0.0154		-0.0312	-0.0379	-0.0713	-0.0127	-0.0748	0.273	0.154	0.236		0.0983	0.273	0.23	0.137	0.138	0.186	0.186	0.162	0.218
